Columns and labels:
[1] = system: calcium level in serum in vitamin D-deficient rats; test: activity of increasing calcium level in serum in vitamin D-deficient rats (oral); format: in vivo, Wistar rats (male); conditions: for Percent increase in serum Ca level (control 100%) / Calcium in the serum: po, once a day over 3 days; for Calcium in the serum: control (ethanol) 8.60
From the text: To confirm it in an in vivo (animal) test, however, its action of increasing the blood calcium level in vitamin D-deficient rats was examined.
Wistar rats (male, three weeks old) purchased from Japan Charles River Co. were fed 3 to 4 weeks with a vitamin D-deficient diet containing calcium (0.02%) and phosphorus (0.99%) to prepare vitamin D-deficient rats. The compound of this invention or 1,25-dihydroxy-26,27-dimethylvitamin D3 was orally administered to these animals once a day over 3 days. On the fourth day, blood was drawn from the animals, and calcium in the serum was measured by atomic absorptiometry.
As soon as the administration began, the feed was changed to one which was vitamin D-deficient but contained calcium in a normal amount (0.56%).

[2] = system: calcium level in the serum; conditions: as shown in Japanese Laid-Open Patent Publication No. 44860/1986; cited from earlier work
[3] = system: calcium level in the serum in vitamin D-deficient low-calcium rats; test: effect of inhibiting dissolution of calcium from bones: calcium level in serum in vitamin D-deficient low-calcium rats (intravenous); format: in vivo, Wistar rats (male); conditions: 500 P moles/100 g body weight, one intravenous administration, next day
From the text: Vitamin D has both an action of calcium deposition on bones and an action of liberating calcium from the bones, and promotes bone formation when the balance between these actions is shifted toward the former. Accordingly, a vitamin D derivative which inhibits dissolution of calcium from bones can be expected to have a very strong bone-forming action. In the present test, calcium in the feed was limited to a low level, and under conditions in which no calcium absorption from the intestinal tract occurred, the activity to increase the calcium level in the serum was examined. This activity is considered to reflect calcium dissolution from the bones.
The following test was conducted in accordance with the method of C. Kaneko et al. [C. Kaneko, S. Yamada, A. Sugimoto, M. Katuta, and S. Sasaki: Steroids, 23, 75 (1974)].
Three week old Wistar rats (male) were purchased from Japan Charles River Co., and were fed for 19 days with a feed being deficient in vitamin D and containing low calcium (0.02%) to prepare vitamin D-deficient hypocalcemia rats. An ethanol solution of an assay compound was intravenously administered once to the rats. On the next day, blood was drawn from the animals, and the calcium level in the serum was measured by atomic absorptiometry (using a double beam atomic absorption photometer made by Shimazu Seisakusho; Model AA-650).

[4] = biological target: T1, 1,25-dihydroxyvitamin D3 receptor in the intestines of chicken embryo (Gallus gallus, UniProt O42392); test: receptor binding ability (in vitro), 1,25-dihydroxyvitamin D3 receptor, charcoal method
T1 sequence (O42392 1-451): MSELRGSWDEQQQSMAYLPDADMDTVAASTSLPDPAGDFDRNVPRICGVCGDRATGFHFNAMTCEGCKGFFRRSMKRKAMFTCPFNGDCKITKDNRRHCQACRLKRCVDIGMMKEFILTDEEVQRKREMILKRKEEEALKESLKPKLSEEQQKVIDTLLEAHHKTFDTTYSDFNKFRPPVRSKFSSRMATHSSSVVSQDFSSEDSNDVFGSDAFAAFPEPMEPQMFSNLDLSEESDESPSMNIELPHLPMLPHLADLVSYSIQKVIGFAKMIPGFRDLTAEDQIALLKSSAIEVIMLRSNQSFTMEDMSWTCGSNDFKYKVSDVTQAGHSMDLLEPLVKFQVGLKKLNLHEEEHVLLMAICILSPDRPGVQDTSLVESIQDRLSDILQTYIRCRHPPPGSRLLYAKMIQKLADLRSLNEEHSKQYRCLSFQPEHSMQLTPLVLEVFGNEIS
Experimental: The mixture was incubated at 0° C. for 3 hours.
The free assay compound and the assay compound bound to the receptor were separated by the charcoal method.

C=C1/C(=C\C=C2/CCC[C@]3(C)[C@@H]([C@H](C)CCCC(O)(CC)CC)CC[C@@H]23)C[C@@H](O)C[C@@H]1O [1,25-Dihydroxy-26,27-dimethyl-vitamin D3, 1,25-dihydroxy-26,27-dimethylvitamin D3, reference compound]
Percent increase in serum Ca level (control 100%) ([1]; 600 P moles/rat): 105% | Calcium in the serum ([1]; 600 P moles/rat): 9.00 mg/dL | Percent increase in serum Ca level (control 100%) ([1]; 1,200 P moles/rat): 112% | Calcium in the serum ([1]; 1,200 P moles/rat): 9.60 mg/dL | action of increasing the calcium level in the serum compared with 1α-hydroxyvitamin D3 or 1,25-dihydroxyvitamin D3 (in words) [2]: stronger action of increasing the calcium level in the serum than 1α-hydroxyvitamin D3 or 1,25-dihydroxyvitamin D3

C=C1/C(=C\C=C2/CCC[C@]3(C)[C@@H]([C@H](C)CCCC(F)(F)C(C)(C)O)CC[C@@H]23)C[C@@H](O)C[C@@H]1O [Compound of the invention, 1α,25-dihydroxy-24a,24a-difluoro-24-homovitamin D3]
Percent increase in serum Ca level (control 100%) ([1]; 600 P moles/rat): 114% | Calcium in the serum ([1]; 600 P moles/rat): 9.80 mg/dL | Percent increase in serum Ca level (control 100%) ([1]; 1,200 P moles/rat): 119% | Calcium in the serum ([1]; 1,200 P moles/rat): 10.20 mg/dL | activity to increase the calcium level in the serum compared with 1,25-dihydroxyvitamin D3 (in words) ([1]; inferred via 1,25-dihydroxy-26,27-dimethylvitamin D3 comparator): stronger than that of 1,25-dihydroxyvitamin D3 | action of increasing the calcium level in the serum (in words) ([1]; vitamin D-deficient rats, oral): shows an action of increasing the calcium level in the serum | Percent increase in serum Ca level (control 100%) ([3]; control 100%): 94.2% | Calcium in the serum ([3]; control (ethanol) 4.47, * significant at P <0.05 vs control): 4.21 mg/dL | IC50 [4]: 50 nM
